Reference: PubChem BioAssay AID330 (DTP/NCI, 2004)
Where “and” joins values, the source holds several entries; their conditions need not be identical. Equal values may be shown once. Inconclusive results and toxic doses are left out. How the source made its calls: active means survival T/C of 150% or more; inactive means T/C below 125% in these data.

Tested on: P388 leukemia ip, CD2F1 mice, survival T/C
Assay: NCI In Vivo Anticancer Drug Screen. Data for tumor model P388 Leukemia (intraperitoneal) in CD2F1 (CDF1) mice
Settings: endpoint: median survival time, higher = longer survival
In short: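 Mice carrying the transplanted tumor received test compound or vehicle. Survival was recorded in each group, and the value is the treated-group measurement divided by that of the vehicle-treated control group.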

[1] = dose: 15.0 mg/kg/injection, schedule: Q01DX005 (ip), vehicle: Klucel (hydroxypropylcellulose) (HPC)
[2] = dose: 30.0 mg/kg/injection, schedule: Q01DX005 (ip), vehicle: Klucel (hydroxypropylcellulose) (HPC)
[3] = dose: 60.0 mg/kg/injection, schedule: Q01DX005 (ip), vehicle: Klucel (hydroxypropylcellulose) (HPC)
[4] = dose: 50.0 mg/kg/injection, schedule: Q01DX005 (ip), vehicle: Klucel (hydroxypropylcellulose) (HPC)
[5] = dose: 100.0 mg/kg/injection, schedule: Q01DX005 (ip), vehicle: Klucel (hydroxypropylcellulose) (HPC)
[6] = dose: 200.0 mg/kg/injection, schedule: Q01DX005 (ip), vehicle: Klucel (hydroxypropylcellulose) (HPC)
[7] = dose: 60.0 mg/kg/injection, schedule: Q01DX005 (ip), vehicle: saline with Tween-80
[8] = dose: 120.0 mg/kg/injection, schedule: Q01DX005 (ip), vehicle: saline with Tween-80
[9] = dose: 240.0 mg/kg/injection, schedule: Q01DX005 (ip), vehicle: saline with Tween-80

Measured: T/C

O=C1OI(OI2OC(=O)c3ccccc32)c2ccccc21
inactive: [1] 102 % of control and 116 % of control | [2] 104 % of control and 92 % of control | [3] 100 % of control and 101 % of control and 113 % of control | dose: 120.0 mg/kg/injection, schedule: Q01DX005 (ip), vehicle: Klucel (hydroxypropylcellulose) (HPC) 101 % of control and 113 % of control

CCCCCCCCCCS(=O)(=O)OCCCCOS(=O)(=O)CCCCCCCCCC
inactive: [4] 103 % of control | [5] 103 % of control | [6] 93 % of control

COc1c2occc2c(CSC(=N)N)c2ccc(=O)oc12
inactive: dose: 25.0 mg/kg/injection, schedule: Q01DX001 (ip), vehicle: saline 105 % of control | dose: 50.0 mg/kg/injection, schedule: Q01DX001 (ip), vehicle: saline 100 % of control | dose: 100.0 mg/kg/injection, schedule: Q01DX001 (ip), vehicle: saline 100 % of control

O=S(=O)(Nc1ncccn1)c1ccc(N=Cc2c3ccccc3nc3ccccc23)cc1
inactive: dose: 12.5 mg/kg/injection, schedule: Q04DX002 (ip), vehicle: Klucel (hydroxypropylcellulose) (HPC) 96 % of control | dose: 25.0 mg/kg/injection, schedule: Q04DX002 (ip), vehicle: Klucel (hydroxypropylcellulose) (HPC) 99 % of control | dose: 50.0 mg/kg/injection, schedule: Q04DX002 (ip), vehicle: Klucel (hydroxypropylcellulose) (HPC) 93 % of control | dose: 100.0 mg/kg/injection, schedule: Q04DX002 (ip), vehicle: Klucel (hydroxypropylcellulose) (HPC) 99 % of control | dose: 200.0 mg/kg/injection, schedule: Q04DX002 (ip), vehicle: Klucel (hydroxypropylcellulose) (HPC) 91 % of control | dose: 400.0 mg/kg/injection, schedule: Q04DX002 (ip), vehicle: Klucel (hydroxypropylcellulose) (HPC) 96 % of control

O=C(Oc1ccc[nH]c1=O)c1cccc(C(F)(F)F)c1
inactive: dose: 12.5 mg/kg/injection, schedule: Q01DX009 (ip), vehicle: distilled water + Tween-80 100 % of control | dose: 25.0 mg/kg/injection, schedule: Q01DX009 (ip), vehicle: distilled water + Tween-80 100 % of control | dose: 50.0 mg/kg/injection, schedule: Q01DX009 (ip), vehicle: distilled water + Tween-80 102 % of control | dose: 100.0 mg/kg/injection, schedule: Q01DX009 (ip), vehicle: distilled water + Tween-80 96 % of control | dose: 200.0 mg/kg/injection, schedule: Q01DX009 (ip), vehicle: distilled water + Tween-80 90 % of control

Fc1ccc(C(Nc2nncs2)Nc2nncs2)cc1F
inactive: [7] 101 % of control | [8] 101 % of control | [9] 110 % of control

Nc1ccc2c(c1)C(=O)N(OS(=O)(=O)c1ccccc1)C2=O
inactive: [7] 106 % of control | [8] 107 % of control | [9] 88 % of control

O=[N+]([O-])c1ccc(S(=O)(=O)c2ccc(Nc3ccnc4cc(Cl)ccc34)cc2)cc1
inactive: [4] 98 % of control | [5] 91 % of control | [6] 90 % of control

COc1cc2cc(c1Cl)N(C)C(=O)CC(OC(=O)C(C)C)C1(C)OC1C(C)C1CC(O)(NC(=O)O1)C(OC)/C=C/C=C(C)C2 (centres undefined)
inactive: dose: 3.1 micrograms/kg/injection, schedule: Q01DX009 (ip), vehicle: saline + alcohol 114 % of control | dose: 6.2 micrograms/kg/injection, schedule: Q01DX009 (ip), vehicle: saline + alcohol 119 % of control | dose: 6.25 micrograms/kg/injection, schedule: Q01DX009 (ip), vehicle: saline + alcohol 115 % of control | dose: 100.0 micrograms/kg/injection, schedule: Q01DX009 (ip), vehicle: saline + alcohol 106 % of control and 86 % of control | dose: 200.0 micrograms/kg/injection, schedule: Q01DX009 (ip), vehicle: saline + alcohol 94 % of control

COc1cc(/C=C2\NC(=S)N(c3ccccc3)C2=O)ccc1O
inactive: dose: 50.0 mg/kg/injection, schedule: Q01DX005 (ip), vehicle: saline with Tween-80 100 % of control and 109 % of control | dose: 100.0 mg/kg/injection, schedule: Q01DX005 (ip), vehicle: saline with Tween-80 100 % of control and 101 % of control and 86 % of control | dose: 200.0 mg/kg/injection, schedule: Q01DX005 (ip), vehicle: saline with Tween-80 100 % of control and 101 % of control and 86 % of control | dose: 400.0 mg/kg/injection, schedule: Q01DX005 (ip), vehicle: saline with Tween-80 99 % of control and 100 % of control and 104 % of control

c1cc2c(cc1CN1CCOCC1)CCc1cc(CN3CCOCC3)ccc1N2
inactive: [1] 101 % of control | [2] 100 % of control | [3] 94 % of control and 95 % of control

Nc1nc2ccc(Br)cc2s1
inactive: dose: 50.0 mg/kg/injection, schedule: Q01DX009 (ip), vehicle: suspension in saline 97 % of control | dose: 100.0 mg/kg/injection, schedule: Q01DX009 (ip), vehicle: saline 86 % of control | dose: 100.0 mg/kg/injection, schedule: Q01DX009 (ip), vehicle: suspension in saline 102 % of control

O=[N+]([O-])c1cc(Cl)c(Cl)cc1NS(=O)(=O)c1ccccc1
inactive: dose: 150.0 mg/kg/injection, schedule: Q01DX009 (ip), vehicle: saline with Tween-80 90 % of control | dose: 150.0 mg/kg/injection, schedule: Q04DX003 (ip), vehicle: saline with Tween-80 100 % of control | dose: 300.0 mg/kg/injection, schedule: Q01DX009 (ip), vehicle: saline with Tween-80 100 % of control | dose: 300.0 mg/kg/injection, schedule: Q04DX003 (ip), vehicle: saline with Tween-80 100 % of control | dose: 600.0 mg/kg/injection, schedule: Q04DX003 (ip), vehicle: saline with Tween-80 95 % of control

Cc1cccc(-c2cc3cccnc3nc2NN=O)c1C
inactive: dose: 3.12 mg/kg/injection, schedule: Q01DX009 (ip), vehicle: water 106 % of control | dose: 6.25 mg/kg/injection, schedule: Q01DX009 (ip), vehicle: water 105 % of control and 122 % of control | dose: 12.5 mg/kg/injection, schedule: Q01DX009 (ip), vehicle: water 111 % of control | dose: 50.0 mg/kg/injection, schedule: Q01DX009 (ip), vehicle: water 106 % of control and 121 % of control | dose: 100.0 mg/kg/injection, schedule: Q01DX009 (ip), vehicle: water 93 % of control

OCCc1cc[nH]c1
inactive: dose: 100.0 mg/kg/injection, schedule: Q01DX009 (ip), vehicle: saline with Tween-80 104 % of control | dose: 200.0 mg/kg/injection, schedule: Q01DX009 (ip), vehicle: saline with Tween-80 104 % of control | dose: 400.0 mg/kg/injection, schedule: Q01DX009 (ip), vehicle: saline with Tween-80 95 % of control

ONc1ncnc2nc[nH]c12
inactive: dose: 50.0 mg/kg/injection, schedule: Q04DX003 (ip), vehicle: saline with Tween-80 122 % of control | dose: 200.0 mg/kg/injection, schedule: Q04DX003 (ip), vehicle: saline sonified 120 % of control

COc1ccc(C2=C(O)c3cc4ccccc4nc3S2(=O)=O)cc1
inactive: dose: 50.0 mg/kg/injection, schedule: Q04DX002 (ip), vehicle: saline 103 % of control | dose: 100.0 mg/kg/injection, schedule: Q04DX002 (ip), vehicle: saline 100 % of control | dose: 200.0 mg/kg/injection, schedule: Q04DX002 (ip), vehicle: saline 102 % of control

C/C=C/C[P+](c1ccccc1)(c1ccccc1)c1cccc2ccccc12
inactive: dose: 6.25 mg/kg/injection, schedule: Q04DX002 (ip), vehicle: saline with Tween-80 121 % of control | dose: 12.5 mg/kg/injection, schedule: Q04DX002 (ip), vehicle: saline with Tween-80 99 % of control | dose: 25.0 mg/kg/injection, schedule: Q04DX002 (ip), vehicle: saline with Tween-80 108 % of control

O=C1CCC(O)=C1C1=NCCCC1
inactive: dose: 100.0 mg/kg/injection, schedule: Q04DX002 (ip), vehicle: saline with Tween-80 94 % of control | dose: 200.0 mg/kg/injection, schedule: Q04DX002 (ip), vehicle: saline with Tween-80 108 % of control | dose: 400.0 mg/kg/injection, schedule: Q04DX002 (ip), vehicle: saline with Tween-80 101 % of control

Ic1ccc([I+]c2ccc(I)cc2)cc1
inactive: dose: 25.0 mg/kg/injection, schedule: Q01DX001 (ip), vehicle: saline with Tween-80 100 % of control | dose: 50.0 mg/kg/injection, schedule: Q01DX001 (ip), vehicle: saline with Tween-80 99 % of control | dose: 100.0 mg/kg/injection, schedule: Q01DX001 (ip), vehicle: saline with Tween-80 95 % of control | dose: 200.0 mg/kg/injection, schedule: Q01DX001 (ip), vehicle: saline with Tween-80 100 % of control | dose: 400.0 mg/kg/injection, schedule: Q01DX001 (ip), vehicle: saline with Tween-80 100 % of control
